Source: ChEMBL document CHEMBL1144081, “Sesquiterpene lactones from neurolaena oaxacana” (1999)
Values after ≈ are worked out from the molar mass of the structure shown.

Experiments:
Entamoeba histolytica = test: […] activity against Entamoeba histolytica; format: functional
Giardia intestinalis = test: Antigiardial activity against Giardia intestinalis; format: functional; conditions: Giardia duodenalis

MIC (Entamoeba histolytica) [µM] | MIC (Giardia intestinalis) [µM] | SMILES
2.9 (≈ 1.39 µg/mL) | – | CC[C@H]1CN2CCc3cc(OC)c(OC)cc3[C@@H]2C[C@@H]1C[C@H]1NCCc2cc(OC)c(OC)cc21 [EMETINE]
7.6 (≈ 3.21 µg/mL) | 3.8 (≈ 1.61 µg/mL) | C=C1C(=O)O[C@@H]2C[C@@H](C)/C=C\C(=O)[C@@](C)(O)[C@H](OC(C)=O)[C@@H](OC(=O)CC(C)C)[C@@H]12 [NEUROLENIN B]
– | 1.17 (≈ 0.2 µg/mL) | Cc1ncc([N+](=O)[O-])n1CCO [METRONIDAZOLE]
